Laboratory results reported in publication PMC6274474, “Synthesis and Cytotoxic Activity on Human Cancer Cells of Novel Isoquinolinequinone–Amino Acid Derivatives” (Molecules, 2016).
Like-named read-outs stand apart in the source and are kept apart here.

Experiments:
[1] = system: J82 human bladder carcinoma cells; assay: MTT cytotoxicity assay, 72 h, bladder carcinoma cells; type: cell-based; settings: 72 h exposure, six determinations, read-out: IC50 ± SEM J82
Protocol: (§1) The series of isoquinolinequinone amino ester conjugates (Table 1) and the bromine derivatives (Table 2) were evaluated for their in vitro cytotoxic activities against normal human lung fibroblast (MRC-5) and three human cancer cells lines: human gastric adenocarcinoma (AGS), human lung cancer (SK-MES-1), and human bladder carcinoma (J82), in 72 h drug exposure assays. The cytotoxic activities of the new compounds were measured using conventional microculture tetrazolium reduction assays. The cytotoxic activities of each of the quinones are expressed in terms of IC50.
(§2) Cytotoxicity assay (Table 3 and Table 4). […] MRC-5, SK-MES-1, and J82 cells were grown in Eagle’s minimal essential medium (EMEM) containing 2 mM L-glutamine, 1 mM sodium pyruvate and 1.5 g/L sodium hydrogen carbonate. AGS cells were grown in Ham F-12 supplemented with 2 mM L-glutamine and 1.5 g/L sodium hydrogen carbonate. Finally, HL-60 cells were grown in RPMI medium. […] For the cytotoxicity experiments, cells were seeded into 96-well plates at a density of 50,000 cells/mL. After reaching confluence, cells were incubated for three days with compounds at varied concentrations ranging from 0 up to 100 μM while untreated cells (medium containing 1% DMSO) were used as controls. Cytotoxicity was assessed using the MTT (3-(4,5-dimethylthiazol-2-yl)-2,5-diphenyltetrazolium bromide) reduction assay. MTT was used at 1 mg/mL and the blue formazan crystals, formed during MTT reduction, were dissolved adding 100 μL of ethanol (acidified with HCl). The absorbance was measured at 550 nm using a Universal Microplate Reader (ELX 800, Bio-Tek Instruments Inc., Winooski, VT, USA). Values were the means of six replicates for each concentration and transformed to percentage of controls. The IC50 value was graphically obtained from the dose–response curves by adjusting them to a sigmoidal model (a + (b − a)/1 + 10(x − c)), where c = log IC50.

[2] = system: MRC-5 normal human lung fibroblasts; assay: MTT cytotoxicity assay, 72 h, normal human lung fibroblasts; type: cell-based; settings: for IC50: MRC5, normal human lung fibroblasts, MTT, 72 h exposure, six determinations, read-out: IC50 ± SEM MRC-5
Protocol: as §1, §2

[3] = system: AGS human gastric adenocarcinoma cells; assay: MTT cytotoxicity assay, 72 h, gastric adenocarcinoma cells; type: cell-based; settings: 72 h exposure, six determinations, read-out: IC50 ± SEM AGS
Protocol: as §1, §2

[4] = system: SK-MES-1 human lung cancer cells; assay: MTT cytotoxicity assay, 72 h, lung cancer cells; type: cell-based; settings: 72 h exposure, six determinations, read-out: IC50 ± SEM SK-MES-1
Protocol: as §1, §2

[5] = system: AGS, SK-MES-1 and J82 human cancer cell lines; assay: MTT cytotoxicity, 72 h, panel summary (mean/range/selective index) over AGS, SK-MES-1, J82 vs MRC-5; type: cell-based; settings: for MSI: Mean Selective Index = IC50 values for fibroblasts/IC50 values tumor cells: MRC-5 vs AGS; for MSI: Mean Selective Index = IC50 values for fibroblasts/IC50 values tumor cells / IC50: SK-MES-1, J82; for IC50: Homo sapiens
Protocol: as §1, §2

[6] = system: T24, DU-145 and MCF-7 human cancer cell lines; assay: MTT cytotoxicity, 48 h, panel summary (range/selective index) over T24, DU-145, MCF-7 vs AG 1523; type: cell-based
Protocol: (§3) Cytotoxicity assay (Table 5). […] The cytotoxic effect of compounds on cell lines was assessed using the MTT assay as reported previously. Briefly, 10,000 cells/well were plated for 24 h in 96-well plates and, after reaching confluence, the cells were incubated for 48 h with DMSO or in the presence of compounds. Cells were washed twice with warm phosphate-buffered saline (PBS) and further incubated for 2 h with MTT (0.5 mg/mL). The blue formazan crystals were then solubilized by adding 100 μL DMSO/well and optical density of colored solutions was read at 550 nm. Results are expressed as % of MTT reduction compared to untreated control conditions. The calculation of IC50 values was performed by using GraphPad Prism software (San Diego, CA, USA).

[7] = system: MCF-7 (breast) human cancer cells; assay: MTT cytotoxicity assay, 48 h, breast cancer cells; type: cell-based; settings: MCF7, three experiments, read-out: IC50 ± SEM MCF-7
Protocol: as §3

[8] = system: T24 (bladder) human cancer cells; assay: MTT cytotoxicity assay, 48 h, bladder cancer cells; type: cell-based; settings: three experiments, read-out: IC50 ± SEM T24
Protocol: as §3

[9] = system: DU-145 (prostate) human cancer cells; assay: MTT cytotoxicity assay, 48 h, prostate cancer cells; type: cell-based; settings: three experiments, read-out: IC50 ± SEM DU-145
Protocol: as §3

[10] = system: AG 1523 normal human fibroblasts; assay: MTT cytotoxicity assay, 48 h, normal human fibroblasts; type: cell-based; settings: AG1523, healthy non-tumor fibroblasts, three experiments, read-out: IC50 ± SEM AG 1523
Protocol: as §3

[11] = SK-MES-1, mean over AGS, read-out: mean IC50 on cancer cells
[12] = SK-MES-1, 72 h, range over AGS, 72 h MTT, read-out: IC50 values range over the cancer cell lines

SMILES: COC(=O)c1c(C)ncc2c1C(=O)C=C(N[C@H](C(=O)OC)C(C)C)C2=O [Compound 3a, Methyl 6- and 7-(1-methoxy-3-methyl-1-oxobutan-2-ylamino)-3-methyl-5,8-dioxo-5,8-dihydro-isoquinoline-4-carboxylate]
- IC50 [1]: 7490 ± 440 nM
- IC50 [2]: 4940 ± 250 nM
- IC50 [3]: 1940 ± 80 nM
- IC50 [4]: 4620 ± 280 nM
- MSI: Mean Selective Index = IC50 values for fibroblasts/IC50 values tumor cells [5]: 1.10

SMILES: COC(=O)c1c(C)ncc2c1C(=O)C=C(N[C@@H](Cc1ccccc1)C(=O)OC)C2=O [Compound 6a, Methyl 6- and 7-(1-methoxy-1-oxo-3-phenylpropan-2-ylamino)-3-methyl-5,8-dioxo-5,8-dihydroisoquinoline-4-carboxylate]
- IC50 [1]: 4680 ± 230 nM
- IC50 [2]: 6730 ± 340 nM
- IC50 [3]: 1850 ± 130 nM
- IC50 [4]: 2500 ± 150 nM
- IC50 [5, 11]: < 4000 nM

SMILES: COC(=O)c1c(C)ncc2c1C(=O)C=C(N[C@@H](CC(C)C)C(=O)OC)C2=O [Compound 4a]
- IC50 [1]: 7650 ± 510 nM
- IC50 [2]: 5700 ± 290 nM
- IC50 [3]: 2970 ± 150 nM
- IC50 [4]: 4560 ± 310 nM
- MSI: Mean Selective Index = IC50 values for fibroblasts/IC50 values tumor cells [5]: 1.13

SMILES: COC(=O)c1c(C)ncc2c1C(=O)C(Br)=C(NC(C)C(=O)OC)C2=O (stereo not drawn) [Compound 12, Methyl 6-bromo-7-(1-methoxy-1-oxopropan-2-ylamino)-3-methyl-5,8-dioxo-5,8-dihydroisoquinoline-4-carboxylate]
- IC50 [1]: 3760 ± 260 nM
- IC50 [2]: 2860 ± 170 nM
- IC50 [3]: 2070 ± 110 nM
- IC50 [4]: 1960 ± 110 nM
- MSI: Mean Selective Index = IC50 values for fibroblasts/IC50 values tumor cells [5]: 1.10
- melting point: 120.5 to 122 °C

SMILES: COC(=O)c1c(C)ncc2c1C(=O)C=C(N[C@@H](CCSC)C(=O)OC)C2=O [Compound 5a]
- IC50 [1]: 6000 ± 320 nM
- IC50 [2]: 5220 ± 310 nM
- IC50 [3]: 2540 ± 210 nM
- IC50 [4]: 2930 ± 110 nM
- MSI: Mean Selective Index = IC50 values for fibroblasts/IC50 values tumor cells [5]: 1.42

SMILES: COC(=O)c1c(C)ncc2c1C(=O)C=C(N[C@@H](Cc1c[nH]c3ccccc13)C(=O)OC)C2=O [Compound 8a, Methyl 6- and 7-(3-(1H-indol-3-yl)-1-methoxy-1-oxopropan-2-ylamino)-3-methyl-5,8-dioxo-5,8-dihydroisoquinoline-4-carboxylate]
- IC50 [1]: 7560 ± 520 nM
- IC50 [2]: 6620 ± 460 nM
- IC50 [3]: 2540 ± 180 nM
- IC50 [4]: 3630 ± 180 nM
- MSI: Mean Selective Index = IC50 values for fibroblasts/IC50 values tumor cells [5]: 1.45

SMILES: COC(=O)c1c(C)ncc2c1C(=O)C(Br)=C(NC(CC(C)C)C(=O)OC)C2=O (stereo not drawn) [Compound 14]
- SI ([6]; AG 1523 fibroblasts vs T24, DU-145, MCF-7): 2.62
- IC50 ([6]; Homo sapiens, range over T24, DU-145, MCF-7, 48 h MTT, read-out: IC50 range in cancer cells): 500 to 670 nM
- IC50 [7]: 500 ± 50 nM
- IC50 [1]: 2210 ± 170 nM
- IC50 [8]: 670 ± 60 nM
- IC50 [2]: > 100000 nM
- SI (normal fibroblasts) ([2]; as printed for normal fibroblasts): > 100
- IC50 [3]: > 100000 nM
- IC50 [4]: 920 ± 40 nM
- MSI on lung and bladder cancer cells ([5]; MRC-5 vs SK-MES-1 and J82 only): > 45
- IC50 [9]: 640 ± 60 nM
- IC50 [10]: 1570 ± 200 nM
- melting point: 104.3 to 106.2 °C

SMILES: COC(=O)c1c(C)ncc2c1C(=O)C(N[C@@H](Cc1ccc(O)cc1)C(=O)OC)=CC2=O [Compound 7b]
- IC50 [1]: 7110 ± 550 nM
- IC50 [2]: 3740 ± 260 nM
- IC50 [3]: 1530 ± 60 nM
- IC50 [4]: 2570 ± 120 nM
- MSI: Mean Selective Index = IC50 values for fibroblasts/IC50 values tumor cells [5]: 1.00
- melting point: 76.5 to 78.5 °C

SMILES: COC(=O)c1c(C)ncc2c1C(=O)C(Br)=C(NC(C(=O)OC)C(C)C)C2=O (stereo not drawn) [Compound 13a]
- IC50 [1]: 4010 ± 190 nM
- IC50 [2]: 2980 ± 210 nM
- IC50 [3]: 1920 ± 130 nM
- IC50 [4]: 2280 ± 90 nM
- MSI: Mean Selective Index = IC50 values for fibroblasts/IC50 values tumor cells [5]: 1.15
- melting point: 105.2 to 107 °C

SMILES: COC(=O)c1c(C)ncc2c1C(=O)C(NC(C(=O)OC)C(C)C)=C(Br)C2=O (stereo not drawn) [Compound 13b]
- IC50 [1]: 8760 ± 610 nM
- IC50 [2]: 2110 ± 110 nM
- IC50 [3]: 2700 ± 140 nM
- IC50 [4]: 3900 ± 310 nM
- MSI: Mean Selective Index = IC50 values for fibroblasts/IC50 values tumor cells [5]: 0.41
- melting point: 105 to 106.6 °C

SMILES: COC(=O)c1c(C)ncc2c1C(=O)C=C(N[C@@H](C)C(=O)OC)C2=O [Compound 2a, Methyl 6- and 7-(1-methoxy-1-oxopropan-2-ylamino)-3-methyl-5,8-dioxo-5,8-dihydroisoquinoline-4-carboxylate]
- IC50 [1]: 6250 ± 440 nM
- IC50 [2]: 9040 ± 690 nM
- IC50 [3]: 2250 ± 150 nM
- IC50 [4]: 2650 ± 190 nM
- IC50 [5, 11]: < 4000 nM

SMILES: COC(=O)c1c(C)ncc2c1C(=O)C(Br)=C(NC(Cc1ccccc1)C(=O)OC)C2=O (stereo not drawn) [Compound 15]
- IC50 [1]: 4610 ± 360 nM
- IC50 [2]: 4480 ± 270 nM
- IC50 [3]: 2080 ± 130 nM
- IC50 [4]: 2130 ± 120 nM
- MSI: Mean Selective Index = IC50 values for fibroblasts/IC50 values tumor cells [5]: 1.52
- melting point: 125.2 to 127.5 °C

SMILES: COC(=O)c1c(C)ncc2c1C(=O)C(N[C@@H](CC(C)C)C(=O)OC)=CC2=O [Compound 4b, Methyl 6- and 7-(1-methoxy-4-methyl-1-oxopentan-2-ylamino)-3-methyl-5,8-dioxo-5,8-dihydroisoquinoline-4-carboxylate]
- IC50 [1]: 2350 ± 90 nM
- IC50 [2]: 1770 ± 140 nM
- IC50 [3]: 1590 ± 70 nM
- IC50 [4]: 2220 ± 120 nM
- IC50 [5, 12]: 580 to 3180 nM
- MSI: Mean Selective Index = IC50 values for fibroblasts/IC50 values tumor cells [5]: 0.86
- melting point: 58.5 to 60.5 °C

SMILES: COC(=O)c1c(C)ncc2c1C(=O)C(N[C@H](Cc1ccccc1)C(=O)OC)=CC2=O [Compound 10b, Methyl 6- and 7-(1-methoxy-1-oxo-3-phenylpropan-2-ylamino)-3-methyl-5,8-dioxo-5,8-dihydroisoquinoline-4-carboxylate]
- IC50 [1]: 3030 ± 170 nM
- IC50 [2]: 1780 ± 120 nM
- IC50 [3]: 1980 ± 110 nM
- IC50 [4]: 1200 ± 50 nM
- IC50 [5, 12]: 580 to 3180 nM
- MSI: Mean Selective Index = IC50 values for fibroblasts/IC50 values tumor cells [5]: 0.82
- melting point: 71.5 to 73 °C
